Read-outs that look alike come from different tables or passages of the source.
How the values were obtained:
human NPC1L1 = target: T1, human NPC1L1 (Homo sapiens, UniProt Q9UHC9, G1187D/M616T/T1073A); experiment: Binding to membranes of HEK-293 cells expressing recombinant human NPC1L1; design: expressed in transfected cells; host or cells: HEK-293 cells (ATCC), transient, pCR3.1; membranes; conditions: 0.03% sodium taurocholate and 0.05% digitonin; 1.25 mg protein/ml, 100 nM 1
T1 sequence (Q9UHC9 22-1332 isoform Q9UHC9-2 M616T/T1046A/G1160D limits assumed): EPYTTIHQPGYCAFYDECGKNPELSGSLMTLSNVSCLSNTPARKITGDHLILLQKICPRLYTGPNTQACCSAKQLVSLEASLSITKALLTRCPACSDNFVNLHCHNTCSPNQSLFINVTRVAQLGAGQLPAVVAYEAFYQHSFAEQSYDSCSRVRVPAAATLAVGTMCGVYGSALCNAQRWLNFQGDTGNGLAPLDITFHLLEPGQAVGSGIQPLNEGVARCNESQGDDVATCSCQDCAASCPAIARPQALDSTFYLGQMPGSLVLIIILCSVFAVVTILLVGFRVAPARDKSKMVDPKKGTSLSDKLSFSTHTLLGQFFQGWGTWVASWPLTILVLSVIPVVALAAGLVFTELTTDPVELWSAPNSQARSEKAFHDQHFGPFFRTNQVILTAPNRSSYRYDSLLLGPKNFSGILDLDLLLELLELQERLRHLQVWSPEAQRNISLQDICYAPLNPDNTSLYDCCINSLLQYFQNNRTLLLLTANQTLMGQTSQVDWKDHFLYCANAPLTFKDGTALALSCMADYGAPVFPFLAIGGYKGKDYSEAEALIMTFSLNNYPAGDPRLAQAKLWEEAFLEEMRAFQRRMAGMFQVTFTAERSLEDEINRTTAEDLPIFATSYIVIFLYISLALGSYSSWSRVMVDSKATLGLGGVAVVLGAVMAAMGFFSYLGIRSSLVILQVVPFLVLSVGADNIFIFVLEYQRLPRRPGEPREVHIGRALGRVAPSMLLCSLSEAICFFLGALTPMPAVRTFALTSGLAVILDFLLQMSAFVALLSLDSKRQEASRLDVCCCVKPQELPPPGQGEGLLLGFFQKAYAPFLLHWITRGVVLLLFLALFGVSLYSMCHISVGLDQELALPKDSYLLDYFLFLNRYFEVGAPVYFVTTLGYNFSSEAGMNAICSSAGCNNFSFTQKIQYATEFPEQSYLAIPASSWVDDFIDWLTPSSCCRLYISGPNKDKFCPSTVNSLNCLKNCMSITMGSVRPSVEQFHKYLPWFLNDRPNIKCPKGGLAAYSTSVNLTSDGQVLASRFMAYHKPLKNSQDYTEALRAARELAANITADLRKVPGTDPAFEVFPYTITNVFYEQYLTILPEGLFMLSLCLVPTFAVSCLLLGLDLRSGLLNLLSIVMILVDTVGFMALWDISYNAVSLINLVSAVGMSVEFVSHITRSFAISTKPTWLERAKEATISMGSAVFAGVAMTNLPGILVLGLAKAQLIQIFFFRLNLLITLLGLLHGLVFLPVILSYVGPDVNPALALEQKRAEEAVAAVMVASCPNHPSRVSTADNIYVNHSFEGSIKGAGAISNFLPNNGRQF
Protocol: Transient expression of NPC1L1. Plasmid pCR3.1 expressing rat NPC1L1 (Genbank AY437867) or human NPC1L1 (Genbank AY437865) were prepared using standard molecular biology protocols. HEK-293 cells (ATCC) were seeded at 10×10^6 cells per T-225 flask (Corning) in DMEM containing 10% fetal calf serum, 4.5 g/L D-glucose and L-glutamine, 18 hours prior to transfection. They were transiently transfected with 25 μg of DNA using Fugene transfection reagent (Roche Biochemical) at a ratio of 6:1 Fugene:DNA. Following transfection, the cells were incubated at 37° C. and 5% CO2 for 48 hours, and then harvested using PBS based cell dissociation buffer (Gibco), pelleted at 500×g, snap frozen on dry ice, and stored at −80° C.
Membrane preparation from HEK-293 cells. Membranes were prepared by resuspending the frozen cell pellets in ten volumes of 20 mM HEPES/Tris buffer at pH 7.40 containing 8% sucrose, and sonicating the suspensions with a probe sonicator on ice until most of the cells were lysed. To isolate the membranes, the sonicates were centrifuged at 1600×g for 10 min to remove cell debris, and then the supernatants were centrifuged at 125,000×g for 1 hour to recover the membranes. These membranes were resuspended in 20 mM HEPES/Tris buffer at pH 7.40 containing 160 mM NaCl and 5% glycerol, and stored at 10-20 mg/ml protein at −80° C.
Analog structures are defined in Table 12.

[1] = target: T2, mouse intestinal brush border membranes (Mus musculus, UniProt Q6T3U4); experiment: Binding assay with mouse (wild type) brush border membrane vesicles
T2 construct: from tissue; host or cells: mouse small-intestinal mucosa (C57BL/6J; wild-type littermates in the knockout comparison), brush border membrane vesicles
Protocol: Glass fiber filters (GF/C) were obtained from Whatman.
For rhesus brush border membranes vesicles, 56 μg protein/assay were incubated with 25 nM ^3H-EZE-glucuronide in the presence of increasing concentrations of EZE-glucuronide and 2. For rat brush border membranes vesicles, 150 μg protein/assay were incubated with 50 nM ^3H-EZE-glucuronide in the presence of increasing concentrations of EZE-glucuronide and 2. For mouse brush border membranes vesicles, 20 μg protein/assay were incubated with 3 nM ^35S-2 in the presence of increasing concentrations of EZE-glucuronide and 2.
Brush border membranes vesicles were prepared from intestinal tissues of wild type and NPC1L1 knockout (−/−) mice. 15, 30 and 60 μg protein/assay of brush border membranes vesicles were incubated with 4 nM ^35S-2 in buffer A for 3 hours at 37° C. in the presence and absence of 100 μM EZE-glucuronide.
For FIG. 14A, enterocyte brush border membranes were prepared from NPC1L1 deficient male mice and same sex wild-type littermates, and tested for binding of 1. […] Membranes from wild type mice are on the left and from NPC1L1 deficient mice on the right.

rat NPC1L1 = rat NPC1L1 (Rattus norvegicus, UniProt Q6T3U3); experiment: ^35S-2 competition binding, rat NPC1L1 transfected CHO cells; design: expressed in transfected cells; pCDNA3); conditions: 5 nM ^35S-2, 2 hours at 37° C.; read-out: Recombinant rat NPC1L1 Ki
Protocol: Rat NPC1L1 transfected CHO cells (˜500,000 cells/assay) were incubated with 5 nM ^35S-2 (˜1 million dpm/assay) for 2 hours at 37° C. in the absence or presence of increasing concentrations of EZE-glucuronide (compound 1), compounds 2, 3, 5, 6, or 8. Compound 8 is an analog of compound 2 wherein the hydroxyl group in the 3-hydroxylpropyl moiety of 2 is replaced with an oxo group.

[2] = 3 nM ^35S-2, 20 μg protein/assay, read-out: inhibition constant Ki, Mouse

SMILES: O=C(O)C1OC(Oc2ccc(C3C(CCC(O)c4ccc(F)cc4)C(=O)N3c3ccc(F)cc3)cc2)C(O)C(O)C1O (single isomer, unassigned) [Compound 4]
- Ki (human NPC1L1): 130 µM

SMILES: O=C(O)[C@H]1O[C@@H](Oc2ccc([C@@H]3[C@@H](CC[C@H](O)c4ccc(F)cc4)C(=O)N3c3ccc(F)cc3)cc2)[C@H](O)[C@@H](O)[C@@H]1O [Compound 1, Ezetimibe glucuronide]
- affinity for mouse membranes (in words) [1]: low affinity
- Ki [1, 2]: 2.3 µM
- Kd ([1]; age-matched wild-type mice, 0.03% sodium taurocholate and 0.05% digitonin): 12 µM
- IC50 ([1]; mouse, read-out: in vitro binding affinity (IC50)): 12 µM
- Kd ([1]; murine membranes, text of b482): 10 µM
- Ki ([1]; wild-type mice, 5 mg/ml protein, 500 nM 1, 0.03% taurocholate, 0.05% digitonin, read-out: Ki, competition of unlabeled ezetimibe glucuronide against 1): 12 µM
- Ki (rat NPC1L1): 0.79 µM
- Ki (human NPC1L1): 0.22 µM

SMILES: CS(=O)(=O)NCC#Cc1ccc(N2C(=O)[C@H](CC[C@H](O)c3ccc(F)cc3)[C@H]2c2ccc(O[C@@H]3O[C@H](C(=O)O)[C@@H](O)[C@H](O)[C@H]3O)cc2)cc1 [Compound 2, 4-[(2S,3R)-3-[(3S)-3 (4-fluorophenyl)-3-hydroxypropyl]-1-(4-{3-[(methylsulfonyl)amino]prop-1-yn-1-yl}phenyl)-4-oxoazetidin-2-yl]phenyl β-D-glucopyranosiduronic acid]
- affinity for mouse membranes (in words) [1]: enhanced affinity
- Ki [1, 2]: 0.144 µM
- binding to wild type control membranes ([1]; 4 nM ^35S-2): detectable binding
- Kd ([1]; control (wild type) mouse membranes, 4 nM ^35S-2, 3 hours at 37° C.): 0.156 µM
- Ki (rat NPC1L1): 0.012 µM

SMILES: O=C(O)[C@H]1O[C@@H](Oc2ccc([C@@H]3[C@@H](CCCc4ccc(F)cc4)C(=O)N3c3ccc(F)cc3)cc2)[C@H](O)[C@@H](O)[C@@H]1O [Compound 3]
- Ki (rat NPC1L1): 2.4 µM
- Ki (human NPC1L1): 1 µM

SMILES: O=C(O)[C@H]1O[C@@H](Oc2ccc([C@@H]3[C@@H](CC[C@@H](O)c4ccc(F)cc4)C(=O)N3c3ccc(F)cc3)cc2)[C@H](O)[C@@H](O)[C@@H]1O [Compound 5]
- Ki (rat NPC1L1): 5.8 µM
- Ki (human NPC1L1): 1.3 µM

SMILES: O=C(CC[C@H]1C(=O)N(c2ccc(F)cc2)[C@@H]1c1ccc(O[C@@H]2O[C@H](C(=O)O)[C@@H](O)[C@H](O)[C@H]2O)cc1)c1ccc(F)cc1 [Compound 6]
- Ki (rat NPC1L1): 84.5 µM
- Ki (human NPC1L1): 14 µM

SMILES: O=C1[C@H](CC[C@H](O)c2ccc(F)cc2)[C@@H](c2ccc(O)cc2)N1c1ccc(F)cc1 [ezetimibe]
- Kd ([1]; Table 11, mouse, absence of detergents): 12 µM

From patent US7901893B2, “NPC1L1 (NPC3) and methods of identifying ligands thereof” (Merck Sharp & Dohme Corp., priority 2004, dated 2011)
